Assay results: PubChem BioAssay AID248 (DTP/NCI, 2004)
Where “and” joins values, the source holds several entries; their conditions need not be identical. Identical values can stand only once. Toxic doses and inconclusive results are not listed. Rule as the data show it: active = T/C of 150% or more; inactive = T/C below 125%.

System: L1210 leukemia ip in BDF1 mice, survival T/C
Assay: NCI In Vivo Anticancer Drug Screen. Data for tumor model L1210 Leukemia (intraperitoneal) in B6D2F1 (BDF1) mice
Conditions: endpoint: mean survival time, higher = longer survival
Outline: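 Value reflects the ratio of survival in compound-treated mice to survival in vehicle-treated controls, with both groups carrying the same transplanted tumor.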

[1] = dose: 100.0 mg/kg/injection, schedule: Q01DX009 (ip), vehicle: saline
[2] = dose: 100.0 mg/kg/injection, schedule: Q04DX003 (ip), vehicle: Klucel (hydroxypropylcellulose) (HPC)
[3] = dose: 200.0 mg/kg/injection, schedule: Q04DX003 (ip), vehicle: Klucel (hydroxypropylcellulose) (HPC)
[4] = dose: 400.0 mg/kg/injection, schedule: Q04DX003 (ip), vehicle: Klucel (hydroxypropylcellulose) (HPC)
[5] = dose: 100.0 mg/kg/injection, schedule: Q04DX003 (ip), vehicle: saline with Tween-80
[6] = dose: 200.0 mg/kg/injection, schedule: Q04DX003 (ip), vehicle: saline with Tween-80
[7] = dose: 400.0 mg/kg/injection, schedule: Q04DX003 (ip), vehicle: saline with Tween-80
[8] = dose: 100.0 mg/kg/injection, schedule: Q01DX001 (ip), vehicle: carboxymethylcellulose (CMC)
[9] = dose: 200.0 mg/kg/injection, schedule: Q01DX001 (ip), vehicle: carboxymethylcellulose (CMC)
[10] = dose: 400.0 mg/kg/injection, schedule: Q01DX001 (ip), vehicle: carboxymethylcellulose (CMC)
[11] = dose: 100.0 mg/kg/injection, schedule: Q01DX009 (ip), vehicle: saline with Tween-80
[12] = dose: 100.0 mg/kg/injection, schedule: Q01DX009 (ip), vehicle: Klucel (hydroxypropylcellulose) (HPC)
[13] = dose: 200.0 mg/kg/injection, schedule: Q01DX009 (ip), vehicle: Klucel (hydroxypropylcellulose) (HPC)
[14] = dose: 100.0 mg/kg/injection, schedule: Q01DX001 (ip), vehicle: saline
[15] = dose: 200.0 mg/kg/injection, schedule: Q01DX001 (ip), vehicle: saline
[16] = dose: 400.0 mg/kg/injection, schedule: Q01DX001 (ip), vehicle: saline

Measured: T/C

CC1=CCC2(C)C(=O)C1CC1=C2CC(C)(C)CC1=O (centres undefined)
inactive: [1] 92 % of control | [2] 101 % of control | dose: 200.0 mg/kg/injection, schedule: Q01DX009 (ip), vehicle: saline 94 % of control | [3] 98 % of control | dose: 400.0 mg/kg/injection, schedule: Q01DX009 (ip), vehicle: saline 101 % of control | [4] 98 % of control

Nc1cc(=O)[nH]c(O)c1C(=O)O
inactive: [5] 98 % of control and 90 % of control | [6] 97 % of control | [7] 94 % of control

N#CCCN(C(=O)Nc1ccccc1)C1CCCCC1
inactive: dose: 100.0 mg/kg/injection, schedule: Q01DX Z (ip), vehicle: methylcellulose (MC) 101 % of control | dose: 200.0 mg/kg/injection, schedule: Q01DX Z (ip), vehicle: methylcellulose (MC) 89 % of control

COC1(C#N)C(=O)c2ccccc2C1=O
inactive: dose: 100.0 mg/kg/injection, schedule: Q01DX001 (ip), vehicle: saline with Tween-80 97 % of control | dose: 200.0 mg/kg/injection, schedule: Q01DX001 (ip), vehicle: saline with Tween-80 108 % of control | dose: 400.0 mg/kg/injection, schedule: Q01DX001 (ip), vehicle: saline with Tween-80 94 % of control

CCOC(=O)c1cc(OCC)c2c(ccc3ccccc32)n1
inactive: [8] 97 % of control | dose: 100.0 mg/kg/injection, schedule: Q01DX009 (ip), vehicle: carboxymethylcellulose (CMC) 95 % of control and 103 % of control | dose: 100.0 mg/kg/injection, schedule: Q04DX002 (ip), vehicle: carboxymethylcellulose (CMC) 102 % of control and 105 % of control | dose: 100.0 mg/kg/injection, schedule: Q04DX003 (ip), vehicle: carboxymethylcellulose (CMC) 103 % of control | [9] 112 % of control | dose: 200.0 mg/kg/injection, schedule: Q01DX009 (ip), vehicle: carboxymethylcellulose (CMC) 98 % of control and 106 % of control | dose: 200.0 mg/kg/injection, schedule: Q04DX002 (ip), vehicle: carboxymethylcellulose (CMC) 97 % of control and 102 % of control | dose: 200.0 mg/kg/injection, schedule: Q04DX003 (ip), vehicle: carboxymethylcellulose (CMC) 97 % of control | [10] 100 % of control | dose: 400.0 mg/kg/injection, schedule: Q01DX009 (ip), vehicle: carboxymethylcellulose (CMC) 98 % of control and 101 % of control | dose: 400.0 mg/kg/injection, schedule: Q04DX002 (ip), vehicle: carboxymethylcellulose (CMC) 96 % of control and 97 % of control | dose: 400.0 mg/kg/injection, schedule: Q04DX003 (ip), vehicle: carboxymethylcellulose (CMC) 102 % of control

CC(C)(C)OC(=O)c1ccc(C#N)cc1
inactive: [8] 96 % of control | [9] 100 % of control | [10] 100 % of control

O=C(/C=C/c1cccc([N+](=O)[O-])c1)Nc1cccc(S(=O)(=O)F)c1
inactive: [11] 89 % of control | dose: 200.0 mg/kg/injection, schedule: Q01DX009 (ip), vehicle: saline with Tween-80 96 % of control | dose: 400.0 mg/kg/injection, schedule: Q01DX009 (ip), vehicle: saline with Tween-80 97 % of control

CC(=O)Oc1cn(Cc2ccccc2)c2c1C(=O)CC(C)C2 (centres undefined)
inactive: dose: 50.0 mg/kg/injection, schedule: Q04DX002 (ip), vehicle: Klucel (hydroxypropylcellulose) (HPC) 108 % of control | dose: 100.0 mg/kg/injection, schedule: Q04DX002 (ip), vehicle: Klucel (hydroxypropylcellulose) (HPC) 94 % of control | dose: 200.0 mg/kg/injection, schedule: Q04DX002 (ip), vehicle: Klucel (hydroxypropylcellulose) (HPC) 102 % of control

O=[N+]([O-])c1cc(Br)cc2c1nc(NCCCO)c1ccccc12
inactive: [2] 103 % of control | [3] 109 % of control | [4] 109 % of control

CSc1ccc(NC(=O)Nc2nccs2)cc1
inactive: dose: 200.0 mg/kg/injection, schedule: Q04DX003 (ip), vehicle: saline sonified 87 % of control | dose: 400.0 mg/kg/injection, schedule: Q04DX003 (ip), vehicle: saline sonified 92 % of control

CN(C)NC(=O)/C=C/c1ccccc1
inactive: [12] 112 % of control | [2] 94 % of control | [13] 102 % of control | [3] 100 % of control | [4] 87 % of control

CCOP(=S)(N/N=C1\CC2CCC1C2)OCC (centres undefined)
inactive: dose: 100.0 mg/kg/injection, schedule: Q01DX001 (ip), vehicle: other 94 % of control

CN(C)C1CCC(N=Nc2cc([N+](=O)[O-])ccc2C(=O)O)CC1 (centres undefined)
inactive: dose: 75.0 mg/kg/injection, schedule: Q01DX001 (ip), vehicle: acetone 105 % of control | dose: 150.0 mg/kg/injection, schedule: Q01DX001 (ip), vehicle: acetone 97 % of control | dose: 300.0 mg/kg/injection, schedule: Q01DX001 (ip), vehicle: acetone 90 % of control

CCN(CC)CC#CCN(CC)CC
inactive: dose: 50.0 mg/kg/injection, schedule: Q01DX009 (ip), vehicle: saline with Tween-80 92 % of control | [11] 97 % of control | [5] 102 % of control | [6] 90 % of control

C=CC(=O)NC(C)C(=O)O (centres undefined)
inactive: [14] 95 % of control | [15] 102 % of control | [16] 98 % of control

CCOC(=O)C(=O)C1CCCCC1=O (centres undefined)
inactive: [14] 108 % of control | [15] 108 % of control

O=C1NC(=O)c2cc([N+](=O)[O-])cc3cccc1c23
inactive: [14] 94 % of control | dose: 100.0 mg/kg/injection, schedule: Q01DX009 (ip), vehicle: saline sonified 90 % of control | [2] 97 % of control | [15] 97 % of control | dose: 200.0 mg/kg/injection, schedule: Q01DX009 (ip), vehicle: saline sonified 95 % of control | [3] 87 % of control | [16] 90 % of control | dose: 400.0 mg/kg/injection, schedule: Q01DX009 (ip), vehicle: saline sonified 88 % of control | [4] 86 % of control

Nc1nc(N)nc(-c2ccccc2N=NN2CCOCC2)n1
inactive: [2] 103 % of control | [3] 101 % of control | [4] 101 % of control

CCC(=O)NCC1(c2ccccc2)CCN(CCCC(=O)c2ccc(F)cc2)CC1
inactive: dose: 25.0 mg/kg/injection, schedule: Q01DX009 (ip), vehicle: saline 121 % of control | dose: 50.0 mg/kg/injection, schedule: Q01DX009 (ip), vehicle: saline 113 % of control | [1] 121 % of control

FC(F)(F)c1cccc(NC(=S)N2CCOCC2)c1
inactive: [12] 98 % of control | [13] 104 % of control | dose: 400.0 mg/kg/injection, schedule: Q01DX009 (ip), vehicle: Klucel (hydroxypropylcellulose) (HPC) 96 % of control

COC(=O)c1ccccc1NN=Nc1ccccc1Cl
inactive: [14] 100 % of control | dose: 100.0 mg/kg/injection, schedule: Q04DX003 (ip), vehicle: saline 105 % of control | [15] 90 % of control | dose: 200.0 mg/kg/injection, schedule: Q04DX003 (ip), vehicle: saline 95 % of control | [16] 99 % of control | dose: 400.0 mg/kg/injection, schedule: Q04DX003 (ip), vehicle: saline 94 % of control

c1ccc2nc(N3CCCCC3)c(N3CCCCC3)nc2c1
inactive: dose: 222.0 mg/kg/injection, schedule: Q01DX Z (ip), vehicle: methylcellulose (MC) 108 % of control | dose: 333.0 mg/kg/injection, schedule: Q01DX Z (ip), vehicle: methylcellulose (MC) 96 % of control | dose: 500.0 mg/kg/injection, schedule: Q01DX Z (ip), vehicle: methylcellulose (MC) 92 % of control

NC(=S)N/N=C/c1ccns1
inactive: dose: 100.0 mg/kg/injection, schedule: Q04DX002 (ip), vehicle: saline with Tween-80 109 % of control | dose: 200.0 mg/kg/injection, schedule: Q04DX002 (ip), vehicle: saline with Tween-80 97 % of control | dose: 400.0 mg/kg/injection, schedule: Q04DX002 (ip), vehicle: saline with Tween-80 103 % of control

CCOC(=O)NC(=S)[S][Sb]([S]C(=S)NC(=O)OCC)[S]c1nc2ccc(N=Nc3ccc(NS(=O)(=O)c4ccc(NC(=O)C(Cl)Cl)cc4)cc3)cc2s1
inactive: dose: 100.0 mg/kg/injection, schedule: Q01DX001 (ip), vehicle: steriod suspending solution 95 % of control | dose: 200.0 mg/kg/injection, schedule: Q01DX001 (ip), vehicle: steriod suspending solution 105 % of control | dose: 400.0 mg/kg/injection, schedule: Q01DX001 (ip), vehicle: steriod suspending solution 92 % of control

CCCCCCCCCCCCCCCCOc1cccc(C=O)c1
inactive: [5] 97 % of control | [6] 93 % of control | [7] 116 % of control
